Measured values taken from patent publication US9381252B2, “Nanoparticles for encapsulation of compounds, the production and uses thereof” (UNIVERSIDAD DE NAVARRA, priority 2010, dated 2016).
Read-outs that look alike come from different tables or passages of the source.

Assay: Pharmacokinetic study, bioavailability of folic acid encapsulated in zein nanoparticles
Type: in vivo, male Wistar rats
Details: male, Wistar; for bioavailability: serum, rat, read-out: FR (relative bioavailability in percentage); for AUC: read-out: AUC (×10^4) (converted)
Protocol: The pharmacokinetic studies were carried out according to the rules of the ethics committee of the Institution as well as the European laws on experimental animals (86/609/EU). To that end, 20 male Wistar rats with an average weight of 200 g were subjected to normal conditions of light-darkness (12 hours-12 hours), and during the week before the study they were fed with a folic acid-deficient feed (Folic Acid Deficient Diet. TD. 95247. Harlan, USA) and water. Twelve hours before the administration of the formulations, the rats were isolated in metabolic cages without access to food, but with free access to drinking water.
The animals were divided into 4 treatment groups (5 rats per group). Only 1 mL of PBS (Phosphate Buffer, pH 7.4) was orally administered to the first of the group. The two following groups were treated with single oral doses of 1 mg/kg (200 μg/rat) of folic acid (Aditio, Panreac Quimica, Barcelona, Spain) incorporated in zein nanoparticles, or in free form (not encapsulated) dissolved in water. 1 mL of each of the different formulations dispersed in water was administered through a gastroesophageal cannula. Finally, the same dose of free folic acid (1 mg/kg) dissolved in phosphate buffer (PBS) (0.5 mL) was intravenously administered to the fourth group in the saphenous vein. Before the administration of the formulations, blood was extracted from the tail saphenous vein for the purpose of checking the baseline level of the vitamin in each rat. After the administration, a volume of blood of approximately 500 μL was extracted at different times using serum-separating tubes ([…] Microtube 1.1 mL Z-Gel). In all the cases, to prevent the pain of the rats, the extraction was carried out after anesthetizing the animal with inhalational anesthesia (isoflurane:oxygen), checking their vital signs at all times.
The blood volume was subsequently replaced by intraperitoneally administering 500 μL of physiological saline previously heated to the temperature of the animal. During this period, the condition of the animals (mobility, aggressiveness, allergic reactions and temperature) was examined, no significant changes being observed.
The quantification of folic acid in the serum samples, obtained after centrifuging the tubes with blood (6,000 rpm, 20 minutes, 20° C.), was carried out by means of an enzyme immunoassay technique. To that end, an Elisa Kit (Diagnostic automation, INC. Calabasas, Calif. USA) approved by the FDA for the quantitative determination of folic acid in foods, was used. The serum samples were quantified without prior treatment and following the manufacturer's specifications.
In all the studied cases, the differences in the serum folic acid concentrations found by both methods were less than 10%. Therefore, the enzyme immunoassay technique was chosen to quantify all the samples, since it requires a smaller amount of serum for the analysis thereof and is a simpler and quicker technique, the limit of detection of which (2 ng/mL) is much lower than that of the chromatographic technique.
The pharmacokinetic study was divided into three phases. The first of them consisted of intravenously administering 1 mg/kg of folic acid dissolved in phosphate buffer; the second of them consisted of orally administering to the rats 1 mL of phosphate buffer (PBS) to a group of 5 male Wistar rats (the baseline levels of the vitamin over time were studied in this group of rats). Finally, the third phase consisted of orally administering 1 mg/kg of (i) folic acid dissolved in water, (ii) folic acid encapsulated in zein nanoparticles to groups of rats formed by 5 animals.
After the administration, a volume of blood of approximately 500 μL was extracted at different times (0, 1, 2, 3, 8 and 24 hours) and collected in serum-separating tubes, subsequently recovering the blood volume of the animal with an equivalent volume of saline by intraperitoneal route. […]

[1] = rat serum, intravenous route, 1 mg/kg folic acid in PBS, mean ± SD, n = 5
[2] = rat serum, oral route, 1 mg/kg folic acid, mean ± SD, n = 5

- bioavailability (intravenous route, 1 mg/kg folic acid in PBS): 100%
- bioavailability (oral route, 1 mg/kg folic acid, mean ± SD, n = 5): 36.3 ± 7.2%
- Cmax [1]: 4230 ± 1650 ng/mL
- MRT [1]: 57.8 min
- AUC [1]: 3580 ng·h/mL
- Cmax [2]: 191 ± 41 ng/mL
- MRT [2]: 384 min
- Tmax [2]: 58.8 min
- AUC [2]: 1300 ng·h/mL
Compound: Nc1nc2ncc(CNc3ccc(C(=O)N[C@@H](CCC(=O)O)C(=O)O)cc3)nc2c(=O)[nH]1 [Non-encapsulated FA, folic acid]
